Where two headings read alike, the source gives them in different places. Positions of bridges follow the written chain, without caps; N, C: chain ends. Residues, ends and D or L forms follow the SMILES beside them.
Legend:
[1] = system: human immunodeficiency virus; assay: XTT anti-HIV assay in CEM-SS cells (strain not stated); format: cell-based; conditions: Human immunodeficiency virus 1, anti-HIV activity, read-out: IC₅₀
[2] = system: CEM-SS cells
Procedure: (§2) The antiviral effect is expressed as the inhibitory concentration of a compound which reduces the number of viruses of the infected culture to 50% of that of the drug - untreated, control culture (IC₅₀). The cytotoxicity is expressed as the concentration of a compound which yields 50% of the number of viable cells of the untreated control cultures (IC₅₀). In this assay, 2',3'-Dideoxyinosine (ddI, Videx®) was also tested for anti-HIV activity.

[3] = system: Vero cell; assay: Cytotoxicity in Vero cells without virus infection; format: cell-based; conditions: Vero cells in the absence of virus, 72 hours at 37°C
Procedure: (§1) The in vitro antiviral activity of BU-4724V was assessed against the herpes simplex virus type 1 (HSV-1) using the KOS strain. The assay was done according to the reported protocol of C. McLaren et al. in Antiviral Research, 3, 223-234, (1986) with minor modification. Briefly, 50 µl of Eagle's MEM medium containing BU-4724V and then 200 µl of the Vero cell suspension (2 X 10⁴ cells/200 µl) were added to a well of a 96-well microtiter plate. To the well, 50µl of medium containing approximately 30 times of the 50% tissue culture infectious dose (50% TCID) of virus was added. In a parallel experiment, the same set of cells without virus infection was prepared, which was for the determination of cytotoxicity of the sample. After 72 hours incubation at 37°C, the inhibition degree of virus-induced cytopathic effect and cytotoxicity by the sample were determined, respectively. The ID₅₀ is expressed as the concentration of a compound showing 50% growth inhibition of the cytopathic effect and the TD₅₀ as the concentration of a compound showing 50% growth inhibition of the cells in the absence of virus. Acyclovir was used as the reference compound for anti-HSV activity in the assay.

[4] = system: herpes simplex virus type 1 (HSV-1) using the KOS strain; assay: Anti-HSV assay, inhibition of virus-induced cytopathic effect in Vero cells; format: cell-based; conditions: HSV-1 KOS, 72 hours at 37°C
Procedure: as §1

[5] = system: CEM-SS cells; assay: Cytotoxicity in CEM-SS cells (XTT assay); format: cell-based; conditions: result in words
Procedure: as §2

[6] = Cytotoxicity in CEM-SS cells (XTT assay); format: cell-based; conditions: human, 50% of viable cells of untreated control, read-out: cytotoxicity IC₅₀
Procedure: as §2

[7] = system: HIV-2 CBL-20; assay: XTT anti-HIV assay in CEM-SS cells; format: cell-based, human immunodeficiency virus; conditions: HIV-2 CBL-20 strain, read-out: IC₅₀
Description: The CEM-SS cells were obtained from Peter Nara, AIDS Research and Reference Program, Division of AIDS, NIAID, NIH.
as §2

[8] = system: HIV-1 IIIb; assay: XTT anti-HIV assay in CEM-SS cells; format: cell-based, human immunodeficiency virus; conditions: HIV-1 IIIb strain, read-out: IC₅₀
Procedure: as §2

[9] = system: S. typhi 901; format: cell-based; conditions: 901, 18 h, pH 7
[10] = system: HIV-1 RF; assay: XTT anti-HIV assay in CEM-SS cells; format: cell-based, human immunodeficiency virus; conditions: HIV-1 RF strain, read-out: IC₅₀
Procedure: as §2

| SMILES | IC50 [1] | cytotoxicity [2] | TD₅₀ [3] | ID₅₀ [4] | solubility (in alkaline water) | solubility (in dimethyl sulfoxide, dimethylformamide, methanol and ethanol) | solubility (in water, ethyl acetate, chloroform, benzene, n-hexane and petroleum ether) | cytotoxicity [5] | CC50 [6] | IC50 [7] | IC50 [8] | MIC [9] | IC50 [10] |
| --- | --- | --- | --- | --- | --- | --- | --- | --- | --- | --- | --- | --- | --- |
| O=c1[nH]cnc2c1ncn2[C@H]1CC[C@@H](CO)O1 [ddI, 2',3'-Dideoxyinosine] | 1000 to 2000 nM | very weak cytotoxicity | – | – | – | – | – | – | – | – | – | – | – |
| Nc1nc2c(ncn2COCCO)c(=O)[nH]1 [Acyclovir] | – | – | >100 µg/mL | 0.28 µg/mL | – | – | – | – | – | – | – | – | – |
| CC[C@H](C)[C@@H]1NC(=O)[C@H](C)NC(=O)[C@H](Cc2ccc(O)cc2)NC(=O)CNC(=O)[C@@H]2CSSC[C@@H]3NC(=O)C[C@H](NC(=O)[C@H](CC(N)=O)NC(=O)[C@H](CSSC[C@@H](C(=O)N[C@@H](Cc4ccccc4)C(=O)N[C@@H](Cc4c[nH]c5ccccc45)C(=O)O)NC(=O)[C@H](C(C)C)NC1=O)NC(=O)[C@H](CO)NC(=O)CNC(=O)[C@H](C(C)C)NC(=O)CNC(=O)[C@H](CC(C)C)NC3=O)C(=O)N[C@@H](Cc1ccccc1)C(=O)N[C@@H](C)C(=O)NCC(=O)N2 [BU-4724V] (CLGVGSCNDFAGCGYAIVCFW-OH; disulfide 1-13, 7-19; lactam N-9; C-terminus assumed) | – | – | >100 µg/mL | 48 µg/mL | slightly soluble | soluble | insoluble | very weak cytotoxicity | ~150000 nM | 230 nM | 460 nM | >100 µg/mL | 90 to 600 nM |
